Test results published in PubChem BioAssay AID1117347 (Cheminformatics & Chemogenomics Research Group (CCRG), …, 2015).
pIC50: −log10 of the molar value. “And” between values parts separate entries of the source, which are not always exact repeats. Equal entries are not always repeated. The source made the active and inactive calls. How the calls were made is not given here.

Tested on: HeLa cell count decrease
Experiment: decrease in HeLa cell numbers, dose-response curve, cell enumeration, 50% inhibitory concentration (AID 1117347)

Row | Structure (SMILES) | IC50 | pIC50
1 | CCCCCCCCCCCCCCCCCCNC(=O)OC1CCN(C(=O)OC[C@H](COC(=O)N(Cc2cccc[n+]2CC)C(=O)c2ccccc2OC)OC)CC1 | 6.14 µM (inactive) | 
2 | Cc1cc(O)c2ccccc2c1O |  | 5.61
3 | CCCCCCCCCCOCC(O)CN (stereo not drawn) | > 10 µM (inactive) | 
4 | COc1cc(NC(C)CCCN)c2ncccc2c1 (stereo not drawn) | > 10 µM (inactive) | 
5 | OC[C@H]1O[C@@H](n2cnc3c(=S)nc[nH]c32)[C@H](O)[C@@H]1O | > 10 µM (inactive) | 
6 | NCCNc1ccc(NCCN)c2c1C(=O)c1ccncc1C2=O |  | 7.38
7 | Cc1nc2ccc(CN(C)c3ccc(C(=O)N[C@@H](CCC(=O)O)C(=O)O)s3)cc2c(=O)[nH]1 | > 10 µM (inactive) | 
8 | Cc1ccc(Nc2nccc(N(C)c3ccc4c(C)n(C)nc4c3)n2)cc1S(N)(=O)=O | > 10 µM (inactive) | 
9 | O=C1c2c(O)ccc(O)c2C(=O)c2c(NCCNCCO)ccc(NCCNCCO)c21 |  | 8.51
10 | COc1cc(NCc2ccc3nc(N)nc(N)c3c2C)cc(OC)c1OC |  | 5.42
11 | CCN(CC)CCOc1ccccc1C(=O)CCc1ccccc1 | > 10 µM (inactive) | 
12 | CCC(COC(=O)c1cc(OC)c(OC)c(OC)c1)(c1ccccc1)N(C)C (stereo not drawn) | > 10 µM (inactive) | 
13 | COc1ccc2cc1Oc1ccc(cc1)C[C@H]1c3c(cc4c(c3Oc3cc5c(cc3OC)CCN(C)[C@@H]5C2)OCO4)CCN1C | 5.54 µM (inactive) | 
14 | Nc1nc(Cl)nc2c1ncn2[C@@H]1O[C@H](CO)[C@@H](O)[C@@H]1F |  | 8.29
15 | CC[C@@]1(O)C(=O)OCc2c1cc1n(c2=O)Cc2cc3c(CN(C)C)c(O)ccc3nc2-1 |  | 8.05
16 | Cc1ccc([N+](=O)[O-])[c]2c1[O][Hg]2 |  | 6.41
17 | CC(C)=CCC/C(C)=C/CC/C(C)=C/C(=O)OCC(=O)[C@@]1(O)CC[C@H]2[C@@H]3CCC4=CC(=O)C=C[C@]4(C)[C@H]3[C@@H](O)C[C@@]21C |  | 7.23
18 | CSc1ccc2c(c1)C(N1CCN(C)CC1)Cc1ccccc1S2 (stereo not drawn) | > 10 µM (inactive) | 
19 | O=C(c1cc(O)c(O)c(O)c1)c1ccc(O)c(O)c1O | > 10 µM (inactive) | 
20 | Oc1c(I)cc(Cl)c2cccnc12 | > 10 µM (inactive) | 
21 | CN1CCC(Nc2ncc3ncnc(Nc4ccc(F)c(Cl)c4)c3n2)CC1 | > 10 µM (inactive) | 
22 | COc1ccc(-c2nc3ccc(C4=NNC(=O)CC4C)cc3[nH]2)cc1 (stereo not drawn) | 7.23 µM (inactive) | 
23 | Cc1cc(=O)c2c(O)c3c(O)cc(=O)c4c3c3c(cc(O)c1c23)C(C)(C)C=4O |  | 6.00
24 | Cc1nc(N)nc(N)c1-c1ccc(Cl)c(Cl)c1 |  | 6.00
25 | COC(=O)Nc1nc2ccc(C(=O)c3ccccc3)cc2[nH]1 |  | 7.27

Row | Structure (SMILES) | IC50 | pIC50
26 | COc1cccc2c1C(=O)c1c(O)c3c(c(O)c1C2=O)C[C@@](O)(C(=O)CO)CC3OC1CC(N2CCOC(OC)C2)C(O)C(C)O1 (stereo partly drawn) |  | 8.33
27 | O=[N+]([O-])c1ccc(O)c2ncccc12 |  | 6.53
28 | COc1ccc2cc3[n+](cc2c1OC)CCc1cc2c(cc1-3)OCO2 | > 10 µM (inactive) | 
29 | COC(=O)Nc1nc2ccc(C(=O)C3CC3)cc2[nH]1 |  | 6.53
30 | CCCCCCCCCCCC[N+](C)(C)Cc1ccccc1 | > 10 µM (inactive) | 
31 | Cn1cnc([N+](=O)[O-])c1Sc1ncnc2nc[nH]c12 | > 10 µM (inactive) | 
32 | Oc1ccc([C@H]2CNCc3c2ccc(O)c3O)cc1O | > 10 µM (inactive) | 
33 | COc1ccc(/C=C/C(=O)c2ccc(OC)cc2OC)cc1 |  | 6.15
34 | Oc1c(Cl)cc(Cl)cc1Sc1cc(Cl)cc(Cl)c1O | > 10 µM (inactive) | 
35 | CCc1nc(N)nc(N)c1-c1ccc(Cl)cc1 | > 10 µM (inactive) | 
36 | CCOc1ccc2nc3cc(N)ccc3c(N)c2c1 |  | 5.68
37 | S=c1nc[nH]c2nc[nH]c12 | > 10 µM (inactive) | 
38 | CCCCCCC[N+](CC)(CC)CCCCc1ccc(Cl)cc1 | > 10 µM (inactive) | 
39 | CCN(CC)CCOc1ccc(/C(=C(\Cl)c2ccccc2)c2ccccc2)cc1 | > 10 µM (inactive) | 
40 | C=CC(=O)Nc1cc2c(Nc3ccc(F)c(Cl)c3)ncnc2cc1OCCCN1CCOCC1 |  | 5.68
41 | O=[N+]([O-])c1ccc(Oc2ccc(N=C=S)cc2)cc1 | > 10 µM (inactive) | 
42 | CCCNCC(O)COc1ccccc1C(=O)CCc1ccccc1 (stereo not drawn) | > 10 µM (inactive) | 
43 | C[C@@]12C(=O)OC(=O)[C@]1(C)C1CCC2O1 |  | 6.00
44 | COCCOC(=O)C1=C(C)NC(C)=C(C(=O)OC/C=C/c2ccccc2)C1c1cccc([N+](=O)[O-])c1 (stereo not drawn) | > 10 µM (inactive) | 
45 | CCC(=O)c1ccc(O)cc1 | > 10 µM (inactive) | 
46 | O=c1c(-c2ccccc2)c1-c1ccccc1 |  | 5.77
47 | CCCCCCCCCCCCNCCNCCNCC(=O)O | > 10 µM (inactive) | 
48 | CC(C)(C)C1CCC(CC2=C(O)c3ccccc3C(=O)C2=O)CC1 (stereo not drawn) | > 10 µM (inactive) | 
49 | Nc1nc(F)nc2c1ncn2[C@@H]1O[C@H](CO)[C@@H](O)[C@@H]1O | > 10 µM (inactive) | 
50 | CCCCCCCCCCCCCCCC[n+]1ccccc1 |  | 6.39

Row | Structure (SMILES) | IC50 | pIC50
51 | Nc1nc(=S)c2[nH]cnc2[nH]1 | > 10 µM (inactive) | 
52 | Oc1c(I)cc(I)c2cccnc12 | > 10 µM (inactive) | 
53 | CO[C@@]12[C@H](COC(N)=O)C3=C(C(=O)C(C)=C(N)C3=O)N1C[C@@H]1N[C@@H]12 |  | 7.11
54 | COCc1c(C(C)C)nc(C(C)C)c(/C=C/[C@@H](O)C[C@@H](O)CC(=O)O)c1-c1ccc(F)cc1 | > 10 µM (inactive) | 
55 | CCCCCCCCCCCCCCCCNc1ccc(C(=O)O)cc1 | > 10 µM (inactive) | 
56 | Clc1ccccc1C(c1ccccc1)(c1ccccc1)n1ccnc1 | > 10 µM (inactive) | 
57 | CC(C)=CCNc1ncnc2c1ncn2[C@@H]1O[C@H](CO)[C@@H](O)[C@H]1O |  | 6.00
58 | CN1CC[C@H](c2c(O)cc(O)c3c(=O)cc(-c4ccccc4Cl)oc23)[C@H](O)C1 |  | 7.67
59 | CC(CC1c2ccccc2CCc2ccccc21)CN(C)C (stereo not drawn) | > 10 µM (inactive) | 
60 | CCCSc1ccc2nc(NC(=O)OC)[nH]c2c1 |  | 7.42
61 | O=C(CCl)c1ccc(Cl)cc1Cl |  | 6.46
62 | N[C@@H](Cc1ccc(N(CCCl)CCCl)cc1)C(=O)O |  | 6.41
63 | O=C1[C@H]2CCCC[C@H]2C(=O)N1CCCCN1CCN(c2nsc3ccccc23)CC1 | > 10 µM (inactive) | 
64 | CN(C)CCC=C1c2ccccc2CCc2ccccc21 | > 10 µM (inactive) | 
65 | Cc1cc(CC(C)CC(C)(C)C)n(O)c(=O)c1 (stereo not drawn) |  | 6.88
66 | Cc1cc2c(C(C)C)c(O)c(O)c(C=O)c2c(O)c1-c1c(C)cc2c(C(C)C)c(O)c(O)c(C=O)c2c1O |  | 5.43
67 | CCC(C)(C)C(=O)O[C@H]1C[C@@H](C)C=C2C=C[C@H](C)[C@H](CC[C@@H]3C[C@@H](O)CC(=O)O3)[C@H]21 | > 10 µM (inactive) | 
68 | CCN(CC)CCOc1ccc(C(O)(Cc2ccc(Cl)cc2)c2ccc(C)cc2)cc1 (stereo not drawn) | > 10 µM (inactive) | 
69 | COc1ccc(Cc2nccc3cc(OC)c(OC)cc23)cc1OC | > 10 µM (inactive) | 
70 | O=C(NOCC1CC1)c1ccc(F)c(F)c1Nc1ccc(I)cc1Cl | > 10 µM (inactive) | 
71 | CC(=O)Oc1ccc(C2(c3ccc(OC(C)=O)cc3)Oc3ccccc3NC2=O)cc1 | 5.75 µM (inactive) | 
72 | CC(=O)O[C@@]12CO[C@@H]1C[C@H](O)[C@@]1(C)C(=O)[C@H](O)C3=C(C)[C@@H](OC(=O)[C@H](O)[C@@H](NC(=O)OC(C)(C)C)c4ccccc4)C[C@@](O)([C@@H](OC(=O)c4ccccc4)[C@H]21)C3(C)C |  | 9.00
73 | CCCCCCCCCCCCCC[N+](C)(C)C |  | 5.48
74 | CN(C)/N=N/c1nc[nH]c1C(N)=O | > 10 µM (inactive) | 
75 | O=c1[nH]c(=O)n([C@H]2C[C@H](O)[C@@H](CO)O2)cc1F | > 10 µM (inactive) | 

Row | Structure (SMILES) | IC50 | pIC50
76 | O=C(O)CCc1nc2ccccc2[nH]1 | > 10 µM (inactive) | 
77 | COC(=O)[C@H]1[C@H]2C[C@@H]3c4[nH]c5cc(OC)ccc5c4CCN3C[C@H]2C[C@@H](OC(=O)/C=C/c2ccc(O)c(OC)c2)[C@@H]1OC | > 10 µM (inactive) | 
78 | CCN1/C(=C/C=C/c2sc3ccccc3[n+]2CC)Sc2ccccc21 |  | 7.44
79 | C1CN(P2(N3CC3)=NP(N3CC3)(N3CC3)=NP(N3CC3)(N3CC3)=N2)CCO1 (stereo not drawn) | > 10 µM (inactive) | 
80 | [O-][n+]1ccccc1SSc1cccc[n+]1[O-] |  | 6.07
81 | O=C1C2CC=CCC2C(=O)N1SC(Cl)(Cl)Cl (stereo not drawn) |  | 5.75
82 | CCCCCCCCCCCCCCCC[N+](C)(C)Cc1ccccc1 | > 10 µM (inactive) | 
83 | CC[C@]1(O)C[C@@H]2CN(CCc3c([nH]c4ccccc34)[C@@](C(=O)OC)(c3cc4c(cc3OC)N(C)[C@H]3[C@@](O)(C(=O)OC)[C@H](OC(C)=O)[C@]5(CC)C=CCN6CC[C@]43[C@@H]65)C2)C1 |  | 8.28 and 8.59
84 | COc1cccc2c1C(=O)c1c(O)c3c(c(O)c1C2=O)C[C@@](O)(C(=O)CO)C[C@@H]3O[C@H]1C[C@H](N)[C@H](O[C@@H]2CCCCO2)[C@H](C)O1 |  | 7.29
85 | O=Cc1ccc(O)c(O)c1O | > 10 µM (inactive) | 
86 | CCc1oc2ccccc2c1C(=O)c1cc(I)c(O)c(I)c1 | > 10 µM (inactive) | 
87 | COc1cc(-c2ccc(=O)[nH]n2)ccc1OC(F)F |  | 8.04
88 | CCCN(CCC)C(=O)C(CCC(=O)OCCCN1CCN(CCOC(=O)Cc2c(C)n(C(=O)c3ccc(Cl)cc3)c3ccc(OC)cc23)CC1)NC(=O)c1ccccc1 (stereo not drawn) | 5.48 µM (inactive) | 
89 | COc1c(C)c2c(c(O)c1C/C=C(\C)CCC(=O)OCCN1CCOCC1)C(=O)OC2 | > 10 µM (inactive) | 
90 | CC[C@@]1(O)C(=O)OCc2c1cc1n(c2=O)Cc2c-1nc1ccccc1c2/C=N/OC(C)(C)C |  | 8.66
91 | Cc1ccc2nc(N)[nH]c(=O)c2c1Sc1ccncc1 | > 10 µM (inactive) | 
92 | CCc1oc2ccccc2c1C(=O)c1cc(Br)c(O)c(Br)c1 | > 10 µM (inactive) | 
93 | Clc1ccc(Nc2nnc(Cc3ccncc3)c3ccccc23)cc1 | > 10 µM (inactive) | 
94 | CC[C@H]1CN2CCc3cc(OC)c(OC)cc3[C@@H]2C[C@@H]1C[C@H]1NCCc2cc(OC)c(OC)cc21 |  | 7.49
95 | CN1CCCC(CC2c3ccccc3Sc3ccccc32)C1 (stereo not drawn) | > 10 µM (inactive) | 
96 | CCC(C)n1ncn(-c2ccc(N3CCN(c4ccc(OC[C@H]5CO[C@](Cn6cncn6)(c6ccc(Cl)cc6Cl)O5)cc4)CC3)cc2)c1=O (stereo partly drawn) | > 10 µM (inactive) | 
97 | C=C(C)[C@H]1Cc2c(ccc3c2O[C@@H]2COc4cc(OC)c(OC)cc4[C@@H]2C3=O)O1 |  | 6.81
98 | CC(C)=CCOc1ccc(/C=C/C(=O)c2ccc(OCC=C(C)C)cc2OCC(=O)O)cc1 | > 10 µM (inactive) | 
